Measured values: ChEMBL document CHEMBL5303768, “Data for DCP probe TP-060” (2023)
Calls of active or inactive are those of the source.

Experiments:
[1] = molecular target: T1, Ceramide glucosyltransferase (Homo sapiens, UniProt Q16739); experiment: Human GCS enzymatic assay; type: functional
T1 sequence (Q16739 whole entry): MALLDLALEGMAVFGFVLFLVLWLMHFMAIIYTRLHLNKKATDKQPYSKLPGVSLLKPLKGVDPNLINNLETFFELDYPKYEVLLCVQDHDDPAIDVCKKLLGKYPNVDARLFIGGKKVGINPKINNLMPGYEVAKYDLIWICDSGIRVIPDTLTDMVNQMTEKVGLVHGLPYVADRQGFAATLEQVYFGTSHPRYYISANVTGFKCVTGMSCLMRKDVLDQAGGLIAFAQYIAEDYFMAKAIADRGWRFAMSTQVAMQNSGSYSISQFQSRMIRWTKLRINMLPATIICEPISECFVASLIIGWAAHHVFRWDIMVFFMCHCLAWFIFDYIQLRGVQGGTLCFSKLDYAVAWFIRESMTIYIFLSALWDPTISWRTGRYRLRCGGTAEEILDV

[2] = molecular target: Ceramide glucosyltransferase (Mus musculus, UniProt O88693); experiment: Mouse GCS enzymatic assay; type: functional
[3] = molecular target: T1, Ceramide glucosyltransferase; experiment: Cellular GlcCer reduction; type: functional, tissue-based, fibroblast
[4] = molecular target: 3',5'-cyclic-AMP phosphodiesterase 4D (Homo sapiens, UniProt Q08499); experiment: (§1) Safety47 Scan (DiscoverX - Eurofins)
[5] = molecular target: 5-hydroxytryptamine receptor 1A (Homo sapiens, UniProt P08908); experiment: as §1
[6] = molecular target: 5-hydroxytryptamine receptor 1B (Homo sapiens, UniProt P28222); experiment: as §1
[7] = molecular target: 5-hydroxytryptamine receptor 2A (Homo sapiens, UniProt P28223); experiment: as §1
[8] = molecular target: 5-hydroxytryptamine receptor 2B (Homo sapiens, UniProt P41595); experiment: as §1
5-hydroxytryptamine receptor 2B, sequence (P41595 whole entry): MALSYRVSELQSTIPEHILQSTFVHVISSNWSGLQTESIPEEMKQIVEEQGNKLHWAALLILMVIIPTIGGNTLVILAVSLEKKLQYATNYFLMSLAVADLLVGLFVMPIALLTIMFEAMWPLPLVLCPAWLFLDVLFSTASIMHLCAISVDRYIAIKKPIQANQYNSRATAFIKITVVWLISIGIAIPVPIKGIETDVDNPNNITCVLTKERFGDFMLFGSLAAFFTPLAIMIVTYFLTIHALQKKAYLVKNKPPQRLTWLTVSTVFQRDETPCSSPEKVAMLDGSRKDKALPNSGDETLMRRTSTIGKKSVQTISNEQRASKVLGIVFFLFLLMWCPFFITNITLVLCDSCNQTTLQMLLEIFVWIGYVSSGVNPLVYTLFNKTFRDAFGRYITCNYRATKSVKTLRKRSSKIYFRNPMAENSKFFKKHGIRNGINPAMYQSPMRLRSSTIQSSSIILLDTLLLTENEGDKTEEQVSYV

[9] = molecular target: 5-hydroxytryptamine receptor 3A (Homo sapiens, UniProt P46098); experiment: as §1
[10] = molecular target: Acetylcholinesterase (Homo sapiens, UniProt P22303); experiment: as §1
[11] = molecular target: Adenosine receptor A2a (Homo sapiens, UniProt P29274); experiment: as §1
[12] = molecular target: Alpha-1A adrenergic receptor (Homo sapiens, UniProt P35348); experiment: as §1
[13] = molecular target: Alpha-2A adrenergic receptor (Homo sapiens, UniProt P08913); experiment: as §1
[14] = molecular target: Amine oxidase [flavin-containing] A (Rattus norvegicus, UniProt P21396); experiment: as §1
[15] = molecular target: Androgen receptor (Homo sapiens, UniProt P10275); experiment: as §1
[16] = molecular target: Beta-1 adrenergic receptor (Homo sapiens, UniProt P08588); experiment: as §1
[17] = molecular target: Beta-2 adrenergic receptor (Homo sapiens, UniProt P07550); experiment: as §1
[18] = molecular target: Cannabinoid receptor 1 (Homo sapiens, UniProt P21554); experiment: as §1
[19] = molecular target: Cannabinoid receptor 2 (Homo sapiens, UniProt P34972); experiment: as §1
Cannabinoid receptor 2, sequence (P34972 whole entry): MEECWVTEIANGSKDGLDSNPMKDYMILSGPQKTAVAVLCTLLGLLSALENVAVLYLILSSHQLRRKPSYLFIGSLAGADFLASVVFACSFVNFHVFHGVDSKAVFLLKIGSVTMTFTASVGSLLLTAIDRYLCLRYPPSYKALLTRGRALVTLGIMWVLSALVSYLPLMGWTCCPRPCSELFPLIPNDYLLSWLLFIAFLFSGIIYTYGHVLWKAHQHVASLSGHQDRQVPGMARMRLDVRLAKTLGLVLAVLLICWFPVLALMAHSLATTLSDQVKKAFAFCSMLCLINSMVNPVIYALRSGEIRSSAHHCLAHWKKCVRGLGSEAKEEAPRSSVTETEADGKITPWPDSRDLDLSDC

[20] = molecular target: Cholecystokinin receptor type A (Homo sapiens, UniProt P32238); experiment: as §1
[21] = molecular target: D(1A) dopamine receptor (Homo sapiens, UniProt P21728); experiment: as §1
[22] = molecular target: D(2) dopamine receptor (Homo sapiens, UniProt P14416); experiment: as §1
[23] = molecular target: Delta-type opioid receptor (Homo sapiens, UniProt P41143); experiment: as §1
[24] = molecular target: Endothelin-1 receptor (Homo sapiens, UniProt P25101); experiment: as §1
Endothelin-1 receptor, sequence (P25101 whole entry): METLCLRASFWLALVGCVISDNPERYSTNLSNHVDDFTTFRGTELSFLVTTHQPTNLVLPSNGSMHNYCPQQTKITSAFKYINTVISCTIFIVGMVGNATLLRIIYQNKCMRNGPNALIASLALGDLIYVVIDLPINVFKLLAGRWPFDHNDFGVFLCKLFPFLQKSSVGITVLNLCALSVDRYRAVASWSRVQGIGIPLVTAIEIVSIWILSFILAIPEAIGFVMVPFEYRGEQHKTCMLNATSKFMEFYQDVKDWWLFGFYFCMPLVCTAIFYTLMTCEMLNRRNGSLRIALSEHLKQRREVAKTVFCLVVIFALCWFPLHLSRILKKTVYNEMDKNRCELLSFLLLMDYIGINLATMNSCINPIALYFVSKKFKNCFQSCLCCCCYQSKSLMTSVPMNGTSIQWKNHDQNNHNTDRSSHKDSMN

[25] = molecular target: Glucocorticoid receptor (Homo sapiens, UniProt P04150); experiment: as §1
[26] = molecular target: Histamine H1 receptor (Homo sapiens, UniProt P35367); experiment: as §1
[27] = molecular target: Histamine H2 receptor (Homo sapiens, UniProt P25021); experiment: as §1
[28] = molecular target: Insulin receptor (Homo sapiens, UniProt P06213); experiment: as §1
[29] = molecular target: Kappa-type opioid receptor (Homo sapiens, UniProt P41145); experiment: as §1
Kappa-type opioid receptor, sequence (P41145 whole entry): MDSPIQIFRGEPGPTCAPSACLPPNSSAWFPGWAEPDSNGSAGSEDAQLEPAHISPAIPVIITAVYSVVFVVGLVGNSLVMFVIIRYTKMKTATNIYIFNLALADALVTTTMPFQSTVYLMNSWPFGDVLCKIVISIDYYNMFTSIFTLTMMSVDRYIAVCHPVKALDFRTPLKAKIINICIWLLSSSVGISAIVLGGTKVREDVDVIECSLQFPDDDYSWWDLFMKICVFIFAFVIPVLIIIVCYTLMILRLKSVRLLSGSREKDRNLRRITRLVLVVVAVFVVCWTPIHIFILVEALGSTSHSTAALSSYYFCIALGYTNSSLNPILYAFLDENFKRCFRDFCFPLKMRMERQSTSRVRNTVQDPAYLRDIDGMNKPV

[30] = molecular target: Mu-type opioid receptor (Homo sapiens, UniProt P35372); experiment: as §1
[31] = molecular target: Muscarinic acetylcholine receptor M1 (Homo sapiens, UniProt P11229); experiment: as §1
[32] = molecular target: Muscarinic acetylcholine receptor M2 (Homo sapiens, UniProt P08172); experiment: as §1
[33] = molecular target: Muscarinic acetylcholine receptor M3 (Homo sapiens, UniProt P20309); experiment: as §1
Muscarinic acetylcholine receptor M3, sequence (P20309 whole entry): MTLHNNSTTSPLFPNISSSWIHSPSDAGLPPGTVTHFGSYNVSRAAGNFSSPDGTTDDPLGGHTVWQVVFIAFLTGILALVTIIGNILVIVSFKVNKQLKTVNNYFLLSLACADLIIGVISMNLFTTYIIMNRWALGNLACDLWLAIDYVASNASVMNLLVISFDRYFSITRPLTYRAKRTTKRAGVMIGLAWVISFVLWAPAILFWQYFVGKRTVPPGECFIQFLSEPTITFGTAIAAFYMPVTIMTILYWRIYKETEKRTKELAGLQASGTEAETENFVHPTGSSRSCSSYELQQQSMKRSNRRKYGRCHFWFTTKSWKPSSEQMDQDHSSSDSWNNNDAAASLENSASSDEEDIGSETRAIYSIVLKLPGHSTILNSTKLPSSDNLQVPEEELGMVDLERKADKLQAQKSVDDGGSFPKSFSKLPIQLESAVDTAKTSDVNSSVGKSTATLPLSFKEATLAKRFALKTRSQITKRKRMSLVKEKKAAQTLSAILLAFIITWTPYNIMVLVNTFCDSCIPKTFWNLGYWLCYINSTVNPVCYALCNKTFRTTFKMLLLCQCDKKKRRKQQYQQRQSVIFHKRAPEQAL

[34] = molecular target: Prostaglandin G/H synthase 1 (Homo sapiens, UniProt P23219); experiment: as §1
[35] = molecular target: Prostaglandin G/H synthase 2 (Homo sapiens, UniProt P35354); experiment: as §1
[36] = molecular target: Rho-associated protein kinase 1 (Homo sapiens, UniProt Q13464); experiment: as §1
[37] = molecular target: Sodium channel protein type 5 subunit alpha (Homo sapiens, UniProt Q14524); experiment: as §1
[38] = molecular target: Sodium-dependent dopamine transporter (Homo sapiens, UniProt Q01959); experiment: as §1
[39] = molecular target: Sodium-dependent noradrenaline transporter (Homo sapiens, UniProt P23975); experiment: as §1
[40] = molecular target: Tyrosine-protein kinase Lck (Homo sapiens, UniProt P06239); experiment: as §1
[41] = molecular target: Vascular endothelial growth factor receptor 2 (Homo sapiens, UniProt P35968); experiment: as §1
[42] = molecular target: Vasopressin V1a receptor (Homo sapiens, UniProt P37288); experiment: as §1
[43] = molecular target: Voltage-gated inwardly rectifying potassium channel KCNH2 (Homo sapiens, UniProt Q12809); experiment: as §1
[44] = molecular target: cGMP-inhibited 3',5'-cyclic phosphodiesterase 3A (Homo sapiens, UniProt Q14432); experiment: as §1
[45] = as §1; design: species or system Rattus norvegicus
[46] = molecular target: Voltage-dependent L-type calcium channel subunit alpha-1C (Homo sapiens, UniProt Q13936); experiment: as §1; design: species or system Rattus norvegicus; conditions: target entry is the homologue from another species
[47] = molecular target: Neuronal acetylcholine receptor; alpha4/beta2 (Homo sapiens, UniProt P17787+P43681); experiment: as §1; type: protein-complex assay
Neuronal acetylcholine receptor; alpha4/beta2, sequence (P17787 whole entry): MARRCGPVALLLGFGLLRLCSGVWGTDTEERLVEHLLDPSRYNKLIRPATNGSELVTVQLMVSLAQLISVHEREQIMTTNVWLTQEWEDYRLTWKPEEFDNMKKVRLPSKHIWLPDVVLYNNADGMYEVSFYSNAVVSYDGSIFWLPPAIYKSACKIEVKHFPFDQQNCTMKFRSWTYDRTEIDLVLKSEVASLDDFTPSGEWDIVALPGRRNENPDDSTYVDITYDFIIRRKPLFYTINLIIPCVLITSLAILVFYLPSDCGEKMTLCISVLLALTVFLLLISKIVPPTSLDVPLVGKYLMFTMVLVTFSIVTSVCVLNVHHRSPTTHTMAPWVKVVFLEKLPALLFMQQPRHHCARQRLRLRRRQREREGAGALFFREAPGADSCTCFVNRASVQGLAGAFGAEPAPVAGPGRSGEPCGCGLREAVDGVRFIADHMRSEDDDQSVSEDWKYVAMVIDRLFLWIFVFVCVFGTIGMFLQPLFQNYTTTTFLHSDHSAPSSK
Neuronal acetylcholine receptor; alpha4/beta2, sequence (P43681 whole entry): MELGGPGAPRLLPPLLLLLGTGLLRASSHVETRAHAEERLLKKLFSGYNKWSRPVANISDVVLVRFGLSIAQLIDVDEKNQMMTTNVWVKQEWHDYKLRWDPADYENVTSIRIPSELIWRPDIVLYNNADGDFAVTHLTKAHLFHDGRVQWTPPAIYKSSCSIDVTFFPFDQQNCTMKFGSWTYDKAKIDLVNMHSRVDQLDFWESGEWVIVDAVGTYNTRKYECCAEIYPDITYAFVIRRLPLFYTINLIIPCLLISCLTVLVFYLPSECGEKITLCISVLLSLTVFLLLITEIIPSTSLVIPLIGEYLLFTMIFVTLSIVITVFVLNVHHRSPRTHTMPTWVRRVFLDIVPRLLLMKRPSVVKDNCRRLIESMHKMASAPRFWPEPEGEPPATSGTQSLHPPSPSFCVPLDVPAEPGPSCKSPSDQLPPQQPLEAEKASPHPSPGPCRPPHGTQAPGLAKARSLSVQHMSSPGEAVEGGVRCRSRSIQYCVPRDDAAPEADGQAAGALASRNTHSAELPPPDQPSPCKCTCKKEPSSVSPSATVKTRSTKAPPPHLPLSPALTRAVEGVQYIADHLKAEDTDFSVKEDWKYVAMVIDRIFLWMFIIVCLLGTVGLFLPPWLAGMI

[48] = molecular target: Voltage-gated potassium channel, IKs; KCNQ1(Kv7.1)/KCNE1(MinK) (Homo sapiens, UniProt P15382+P51787); experiment: as §1; type: protein-complex assay
[49] = molecular target: Glutamate NMDA receptor; GRIN1/GRIN2B (Homo sapiens, UniProt Q05586+Q13224); experiment: as §1; type: protein-complex assay, Rattus norvegicus; conditions: target entry is the homologue from another species
Glutamate NMDA receptor; GRIN1/GRIN2B, sequence (Q13224 whole entry, other chains not shown): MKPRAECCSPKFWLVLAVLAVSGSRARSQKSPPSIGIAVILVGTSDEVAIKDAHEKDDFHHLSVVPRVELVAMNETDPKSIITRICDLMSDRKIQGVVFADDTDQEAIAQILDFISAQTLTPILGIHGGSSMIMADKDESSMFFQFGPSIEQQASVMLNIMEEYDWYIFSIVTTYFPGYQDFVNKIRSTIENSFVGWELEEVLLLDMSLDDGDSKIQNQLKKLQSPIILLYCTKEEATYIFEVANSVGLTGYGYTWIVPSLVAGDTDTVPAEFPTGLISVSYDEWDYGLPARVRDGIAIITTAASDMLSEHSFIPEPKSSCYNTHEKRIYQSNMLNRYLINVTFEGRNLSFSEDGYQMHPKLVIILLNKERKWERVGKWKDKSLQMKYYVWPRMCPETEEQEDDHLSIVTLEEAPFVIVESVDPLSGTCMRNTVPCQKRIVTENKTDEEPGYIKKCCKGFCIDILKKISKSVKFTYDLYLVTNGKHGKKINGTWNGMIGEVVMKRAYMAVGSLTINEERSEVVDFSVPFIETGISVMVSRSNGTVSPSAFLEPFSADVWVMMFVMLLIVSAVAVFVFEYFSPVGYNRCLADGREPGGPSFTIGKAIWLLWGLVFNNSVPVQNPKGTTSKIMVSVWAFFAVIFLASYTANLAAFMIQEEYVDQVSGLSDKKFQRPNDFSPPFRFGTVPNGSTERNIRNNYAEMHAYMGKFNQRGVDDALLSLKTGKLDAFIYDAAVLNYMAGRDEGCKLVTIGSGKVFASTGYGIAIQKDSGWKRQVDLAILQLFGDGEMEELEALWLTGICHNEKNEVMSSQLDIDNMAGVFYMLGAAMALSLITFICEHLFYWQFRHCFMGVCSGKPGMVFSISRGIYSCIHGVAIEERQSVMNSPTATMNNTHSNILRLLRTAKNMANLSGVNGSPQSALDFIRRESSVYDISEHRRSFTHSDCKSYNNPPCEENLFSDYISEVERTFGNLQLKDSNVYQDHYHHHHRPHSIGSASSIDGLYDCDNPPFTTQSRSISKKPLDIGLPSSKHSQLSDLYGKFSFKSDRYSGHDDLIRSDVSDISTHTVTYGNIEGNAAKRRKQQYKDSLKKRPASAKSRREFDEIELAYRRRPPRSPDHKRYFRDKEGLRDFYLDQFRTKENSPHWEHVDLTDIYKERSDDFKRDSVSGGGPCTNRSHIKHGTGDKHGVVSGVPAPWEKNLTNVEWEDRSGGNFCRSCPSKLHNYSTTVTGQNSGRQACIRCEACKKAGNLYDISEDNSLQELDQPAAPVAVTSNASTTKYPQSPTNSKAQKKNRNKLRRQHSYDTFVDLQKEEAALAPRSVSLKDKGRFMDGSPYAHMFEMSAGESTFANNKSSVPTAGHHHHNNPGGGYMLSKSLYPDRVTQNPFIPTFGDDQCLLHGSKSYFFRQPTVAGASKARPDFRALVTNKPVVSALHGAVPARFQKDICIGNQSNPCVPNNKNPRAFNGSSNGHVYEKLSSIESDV

COc1cccc(-c2nccc3c2CN(c2ccccc2)C3=O)c1
> 100 µM (not active): IC50 [1] | IC50 [2]
> 10 µM (not active): EC50 [3]

CC(C)(O)c1ccc(N2Cc3c(ccnc3-c3ccc(F)cc3OCC(F)(F)F)C2=O)cc1
2.8 µM: EC50 [6]
> 10 µM: IC50 [4] | EC50 [5] | IC50 [5] | IC50 [6] | EC50 [7] | IC50 [7] | EC50 [8] | IC50 [8] | EC50 [9] | IC50 [9] | IC50 [10] | EC50 [11] | IC50 [11] | EC50 [12] | IC50 [12] | EC50 [13] | IC50 [13] | IC50 [14] | EC50 [15] | IC50 [15] | EC50 [16] | IC50 [16] | EC50 [17] | IC50 [17] | EC50 [18] | IC50 [18] | EC50 [19] | IC50 [19] | EC50 [20] | IC50 [20] | EC50 [21] | IC50 [21] | EC50 [22] | IC50 [22] | EC50 [23] | IC50 [23] | EC50 [24] | IC50 [24] | EC50 [25] | IC50 [25] | EC50 [26] | IC50 [26] | EC50 [27] | IC50 [27] | IC50 [28] | EC50 [29] | IC50 [29] | EC50 [30] | IC50 [30] | EC50 [31] | IC50 [31] | EC50 [32] | IC50 [32] | EC50 [33] | IC50 [33] | IC50 [34] | IC50 [35] | IC50 [36] | IC50 [37] | IC50 [38] | IC50 [39] | IC50 [40] | IC50 [41] | EC50 [42] | IC50 [42] | IC50 [43] | IC50 [44] | EC50 [45] | IC50 [45] | IC50 [46] | EC50 [47] | EC50 [48] | IC50 [48] | EC50 [49] | IC50 [49]
6.5 µM: IC50 [47]
active: EC50 [3] 0.0076 µM
